In US10195189B2, “2-phenethenyltetrahydro isoquinolines useful as anti-HIV compounds” (priority 2014, dated 2019):

System: HIV-1 NL4-3 viral clone expressing Renilla luciferase
Assay: microbe, parasite or virus in culture
Type: cell-based
Conditions: Human immunodeficiency virus 1, NL43, MT2, 96 h
Description: Protocol for MT-2 Spread Assay
The present assay was used to screen candidate antiviral compounds by quantification of virus spread and production over several rounds of infection in vitro. MT-2, a HIV-1 permissive human T-cell line, was seeded in microtiter plates and was simultaneously treated with serially diluted compound and inoculated with a HIV-1 NL4-3 viral clone engineered to express Renilla luciferase in place of Net Following treatment, the culture was incubated for 96 hours. After the incubation, media was collected and used to estimate relative infectivity on the indicator cell line, TZM-bl. Additionally, viral spread was quantified by measuring luciferase activity via a commercially available luciferase substrate. In parallel, MT-2 cells were seeded and inoculated with mock virus in the presence of serially diluted compound. Compound toxicity was quantified 96 hours after treatment with AlamarBlue.
MT-2 (NIH Aids reagent program 237) cells were grown and maintained in an incubator at 37° C. with 5% CO2 using a basal medium of RPMI-1640 supplemented with 10% FBS. Cells were seeded in 100 μl at 2×10^4 cells/well in white walled 96-well microtiter plates. Candidate compounds were 3-fold serially diluted in the appropriate solvent. Solvent without compound was used as a no drug reference. Cells were inoculated at a multiplicity of 0.027 with an HIV-1 NL4-3 virus stock engineered to express Renilla luciferase in place of Net Diluted virus stock was first added to serially diluted compound. Compound and virus were delivered to cells in an equal volume (100 μl) and treated cultures were returned to the incubator for 96 hours. In parallel, plates for cytotoxicity estimates were prepared in the same way except cells were plated in clear walled 96-well microtiter plates and were mock infected.
At 96 hours post infection, 100 μl virus containing culture supernatant was collected from the treated and infected cultures and serially diluted in DMEM supplemented with 10% FBS, 1% sodium pyruvate, and 20 μg/ml DEAE dextran. One day prior, TZM-bl (ATCC PTA-5659) were cultured in basal medium of DMEM supplemented with 10% FBS and 1% sodium pyruvate and seeded at 7.5×10^3 cells/well in black walled 96-well microtiter plates. Diluted virus containing culture supernatant was transferred to TZM-bl cultures and incubated for 48 hours at 37° C. with 5% CO2. Infected TZM-bl cultures were fixed for 5 minutes with a 1% formaldehyde/0.2% gluteraldehyde/PBS solution then washed three times with PBS. Fixed cultures were incubated at 37° C. for 25 minutes with a 200 μg/ml MUG (4-Methylumbelliferyl β-D-[…])/DMEM solution. The reaction was stopped with an equal volume of 1M sodium carbonate and read at 360, 449 nm on fluorescence plate reader (Biotek).
At 96 hours post infection, 100 μl of culture supernatant was removed from the treated and infected cultures and EnduRen live cell substrate (Promega) was added at a final concentration 1.3 μg/ml. Cells were incubated for 1.5 hours at 37° C. with 5% CO2 then read on a luminescence plate reader (Biotek).
For all assays, data was imported into Accelrys Assay Explorer 3.3. In Assay Explorer, % inhibition (antiviral or cytotoxicity) was calculated using the solvent control as a reference by the following equation: 1−(SignalCompound/SignalReference). The % Inhibition and compound concentration data was fitted using the following 4-parameter logistic model (Assay Explorer model 42):
[formula] where X is compound concentration, Y is % inhibition, D is the maximum % Inhibition (constrained to 100%), C is IC50 value or inflection point, B is the hill slope, and A is the minimum % inhibition (constrained to 0%). The IC50 value is reported as the EC50 or CC50 depending on the assay endpoint. EC50 represents the effective concentration at which virus replication is inhibited by 50 percent. CC50 represents the concentration that results in the death of 50 percent of the host cells. […]

With `COc1cc2c(cc1OCc1ccccc1)CCNC2c1cc(OCc2ccccc2)c(OC)cc1C` (stereo not shown) [AY, 6-(Benzyloxy)-1-(5-(benzyloxy)-4-methoxy-2-methylphenyl)-7-methoxy-1,2,3,4-tetrahydroisoquinoline] as the compound, how does the EC50 read?
Its EC50 is 4880 nM.

`COc1cc2c(cc1OCc1ccccc1)CCNC2/C=C/c1ccc(F)cc1C` (stereo not shown) [Example X, 6-benzyloxy-1-[(E)-2-(4-fluoro-2-methyl-phenyl)vinyl]-7-methoxy-1,2,3,4-tetrahydroisoquinoline] was tested. Which EC50 did it give?
The EC50 was 620 nM.

With `COc1cc2c(cc1OCc1ccccc1)CCNC2/C=C/c1ccccc1N` (stereo not shown) [CX, 2-[(E)-2-(6-benzyloxy-7-methoxy-1,2,3,4-tetrahydroisoquinolin-1-yl)vinyl]aniline] as the compound, how does the EC50 read?
The EC50 was 1400 nM.

Which EC50 does the source give for `COc1cc(/C=C/C2NCCc3cc(OCc4ccccc4)c(OC)cc32)ccn1` (stereo not shown) [AU, 6-benzyloxy-7-methoxy-1-[(E)-2-(2-methoxy-4-pyridyl)vinyl]-1,2,3,4-tetrahydroisoquinoline] here?
The EC50 was 1650 nM.

Which EC50 does the source give for `COc1cc2c(cc1OCc1ccccc1)CCNC2/C=C/c1ccc2c(c1)CCCO2` (stereo not shown) [CB, 6-Benzyloxy-1-[(E)-2-chroman-6-ylvinyl]-7-methoxy-1,2,3,4-tetrahydroisoquinoline] here?
Its EC50 is 1550 nM.

Which EC50 does the source give for `COCCCCOc1cc(OC)ccc1/C=C/C1NCCc2cc(OCc3ccccc3)c(OC)cc21` (stereo not shown) [Example AI, (E)-6-(benzyloxy)-7-methoxy-1-(4-methoxy-2-(4-methoxybutoxy)styryl)-1,2,3,4-tetrahydroisoquinoline] here?
The EC50 was 1500 nM.

With `CCOC(=O)c1coc(-c2ccc(/C=C/C3NCCc4cc(OCc5ccccc5)c(OC)cc43)cc2)n1` (stereo not shown) [EE, Ethyl 2-[4-[(E)-2-(6-benzyloxy-7-methoxy-1,2,3,4-tetrahydroisoquinolin-1-yl)vinyl]phenyl]oxazole-4-carboxylate] as the compound, how does the EC50 read?
Its EC50 is 990 nM.

`COc1cc2c(cc1OCc1ccccc1)CCNC2c1ccccc1CNC(=O)OC(C)(C)C` (stereo not shown) [AZ, tert-Butyl N-[[2-(6-benzyloxy-7-methoxy-1,2,3,4-tetrahydroisoquinolin-1-yl)phenyl]methyl]carbamate] was tested. Which EC50 did it give?
Its EC50 is 2770 nM.

Which EC50 does the source give for `COc1cc2c(cc1OCc1ccccc1)CCNC2/C=C/c1ccc(-n2cncn2)cc1` (stereo not shown) [DT, 6-(Benzyloxy)-7-methoxy-1-[(E)-2-[4-(1H-1,2,4-triazol-1-yl)phenyl]ethenyl]-1,2,3,4-tetrahydroisoquinoline] here?
Its EC50 is 157 nM.

With `COc1cc2c(cc1OCc1ccccc1)CCNC2/C=C/c1cc2ccccc2n1C(=O)OC(C)(C)C` (stereo not shown) [CH, tert-Butyl 2-[(E)-2-(6-benzyloxy-7-methoxy-1,2,3,4-tetrahydroisoquinolin-1-yl)vinyl]indole-1-carboxylate] as the compound, how does the EC50 read?
The EC50 was 580 nM.

How did the EC50 turn out when `COc1ccc(/C=C/C2NCCc3cc(OCc4ccccc4)c(OC)cc32)c(F)c1` (stereo not shown) [BR, 6-Benzyloxy-1-[(E)-2-(2-fluoro-4-methoxy-phenyl)vinyl]-7-methoxy-1,2,3,4-tetrahydroisoquinoline] was run?
Its EC50 is 1140 nM.

How did the EC50 turn out when `COc1cc2c(cc1OCc1ccccc1)CCNC2/C=C/c1ccc(-c2ccccn2)cc1` (stereo not shown) [DZ, 6-Benzyloxy-7-methoxy-1-[(E)-2-[4-(2-pyridyl)phenyl]vinyl]-1,2,3,4-tetrahydroisoquinoline] was run?
The EC50 was 650 nM.

For `COc1cc2c(cc1OCc1ccccc1)CCNC2/C=C/c1cc2c(cc1C)OCC2` (stereo not shown) [CG, 6-Benzyloxy-7-methoxy-1-[(E)-2-(6-methyl-2,3-dihydrobenzofuran-5-yl)vinyl]-1,2,3,4-tetrahydroisoquinoline], which EC50 is on record?
Its EC50 is 140 nM.

With `COc1cc2c(cc1OCc1ccccc1)CCNC2/C=C/c1ccc2occc2c1` (stereo not shown) [BN, 1-[(E)-2-(benzofuran-5-yl)vinyl]-6-benzyloxy-7-methoxy-1,2,3,4-tetrahydroisoquinoline] as the compound, how does the EC50 read?
Its EC50 is 840 nM.

How did the EC50 turn out when `COc1cc2c(cc1OCc1ccccc1)CCNC2/C=C/c1cccc2c1OCCC2` (stereo not shown) [CF, 6-Benzyloxy-1-[(E)-2-chroman-8-ylvinyl]-7-methoxy-1,2,3,4-tetrahydroisoquinoline] was run?
The EC50 was 490 nM.

`COc1cc(/C=C/C2NCCc3cc(OC)c(OCc4ccccc4)cc32)ccc1OCc1ccccc1` (stereo not shown) [Example S, 7-benzyloxy-1-[(E)-2-(4-benzyloxy-3-methoxy-phenyl)vinyl]-6-methoxy-1,2,3,4-tetrahydroisoquinoline] was tested. Which EC50 did it give?
Its EC50 is 992 nM.
